Results from ChEMBL document CHEMBL1129928, “Selectin-ligand interactions revealed by molecular dynamics simulation in solution” (J Med Chem, 1997).

How the values were obtained:
Type in all cases: cell-based, Endothelial cell
[1] = target: T1, P-selectin (Homo sapiens, UniProt P16109); test: Inhibitory activity against Selectin P expressed in endothelial cells
T1 sequence (P16109 whole entry): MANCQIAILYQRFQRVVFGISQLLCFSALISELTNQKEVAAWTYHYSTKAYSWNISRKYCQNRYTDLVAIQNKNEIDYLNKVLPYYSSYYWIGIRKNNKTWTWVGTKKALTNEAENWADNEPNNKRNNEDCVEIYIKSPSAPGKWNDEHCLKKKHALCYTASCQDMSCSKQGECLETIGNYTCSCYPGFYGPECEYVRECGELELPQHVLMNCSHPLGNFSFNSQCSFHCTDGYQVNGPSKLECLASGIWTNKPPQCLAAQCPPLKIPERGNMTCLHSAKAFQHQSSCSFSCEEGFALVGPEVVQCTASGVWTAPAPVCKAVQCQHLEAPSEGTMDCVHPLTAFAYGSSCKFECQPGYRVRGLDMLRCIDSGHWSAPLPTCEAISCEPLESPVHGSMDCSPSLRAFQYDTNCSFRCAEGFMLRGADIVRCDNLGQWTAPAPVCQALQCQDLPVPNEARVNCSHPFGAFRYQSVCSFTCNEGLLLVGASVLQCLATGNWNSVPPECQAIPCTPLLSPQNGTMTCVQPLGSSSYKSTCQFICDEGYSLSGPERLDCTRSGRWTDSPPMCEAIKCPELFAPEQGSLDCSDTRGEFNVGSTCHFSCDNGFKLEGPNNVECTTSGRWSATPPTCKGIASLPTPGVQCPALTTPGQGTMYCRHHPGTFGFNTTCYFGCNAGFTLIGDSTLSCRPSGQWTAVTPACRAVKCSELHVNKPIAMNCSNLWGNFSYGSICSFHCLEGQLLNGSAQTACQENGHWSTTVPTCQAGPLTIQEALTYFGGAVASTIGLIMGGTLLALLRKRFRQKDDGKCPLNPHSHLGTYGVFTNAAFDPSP

[2] = target: T2, E-selectin (Homo sapiens, UniProt P16581); test: Inhibitory activity against E-selectin expressed in endothelial cells
T2 sequence (P16581 whole entry): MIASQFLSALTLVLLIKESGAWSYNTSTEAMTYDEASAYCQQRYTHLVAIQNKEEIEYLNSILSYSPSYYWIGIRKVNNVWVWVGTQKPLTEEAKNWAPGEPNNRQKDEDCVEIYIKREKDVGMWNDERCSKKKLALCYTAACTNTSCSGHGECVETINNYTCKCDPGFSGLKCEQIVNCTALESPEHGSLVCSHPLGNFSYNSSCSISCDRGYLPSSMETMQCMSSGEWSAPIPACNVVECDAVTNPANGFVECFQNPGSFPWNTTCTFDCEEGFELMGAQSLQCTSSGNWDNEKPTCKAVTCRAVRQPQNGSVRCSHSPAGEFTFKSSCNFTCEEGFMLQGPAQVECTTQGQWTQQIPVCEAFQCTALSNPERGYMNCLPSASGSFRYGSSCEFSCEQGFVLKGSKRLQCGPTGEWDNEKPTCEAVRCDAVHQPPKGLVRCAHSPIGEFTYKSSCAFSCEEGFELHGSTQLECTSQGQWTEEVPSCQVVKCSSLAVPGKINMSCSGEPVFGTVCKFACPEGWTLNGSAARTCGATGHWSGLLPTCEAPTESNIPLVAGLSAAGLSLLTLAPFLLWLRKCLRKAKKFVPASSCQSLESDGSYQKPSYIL

[3] = target: T3, L-selectin (Homo sapiens, UniProt P14151); test: Inhibitory activity against Selectin L expressed in endothelial cells
T3 sequence (P14151 whole entry): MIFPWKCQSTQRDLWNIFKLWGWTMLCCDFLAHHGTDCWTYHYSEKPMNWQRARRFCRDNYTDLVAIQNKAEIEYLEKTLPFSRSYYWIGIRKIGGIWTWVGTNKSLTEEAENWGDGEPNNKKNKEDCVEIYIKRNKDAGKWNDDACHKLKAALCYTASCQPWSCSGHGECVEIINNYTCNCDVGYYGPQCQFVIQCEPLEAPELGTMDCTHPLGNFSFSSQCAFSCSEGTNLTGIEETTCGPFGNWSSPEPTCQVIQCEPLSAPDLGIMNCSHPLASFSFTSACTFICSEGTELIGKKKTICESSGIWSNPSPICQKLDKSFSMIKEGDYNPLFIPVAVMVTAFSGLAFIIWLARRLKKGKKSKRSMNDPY

For `C[C@@H]1O[C@@H](O[C@@H]2[C@H](O)[C@H](O)O[C@@H](CO)[C@H]2O[C@@H]2O[C@@H](CO)[C@H](O)[C@H](OS(=O)(=O)O)[C@@H]2O)[C@@H](O)[C@@H](O)[C@@H]1O`, the IC50 [1] was 300 µM, the IC50 [2] was over 1000 µM and the IC50 [3] was over 1000 µM.
With `CC(=O)N[C@H]1[C@H]([C@H](O)[C@H](O)CO)O[C@@](O[C@@H]2[C@H](O)[C@H](O[C@H]3[C@H](O[C@@H]4O[C@@H](C)[C@@H](O)[C@H](O)[C@@H]4O)[C@H](NC(C)=O)C(O)O[C@H]3CO)O[C@@H](CO)[C@@H]2O)(C(=O)O)C[C@H]1O` (some centres undefined) the IC50 [1] was over 1000 µM, the IC50 [2] was 600 µM and the IC50 [3] was over 1000 µM.
`CCCCCCCCCCCCCCC(CCCCCCCCCCCCCC)CO[C@@H]1O[C@H](CO)[C@@H](O[C@@H]2O[C@H](CO)[C@H](O)[C@H](OS(=O)(=O)O)[C@H]2O)[C@H](O[C@@H]2O[C@@H](C)[C@@H](O)[C@@H](O)[C@@H]2O)[C@H]1O` was tested, and the IC50 [1] was 100 µM, the IC50 [2] was 280 µM and the IC50 [3] was 30 µM.
